Source: patent US11896010B2, “Uracil compound and use thereof” (Sumitomo Chemical Company, Limited, priority 2018, dated 2024)

Key:
Assay type in all cases: in vivo
Amaranthus retroflexus = experiment: Test Example 1: post-emergence foliage spray pot test in greenhouse, weed control efficacy; conditions: for weed control efficacy score (0 to 100), Amaranthus retroflexus: foliar spray 204 L/ha on plants grown 15 days, evaluated after 11 days, 0 = same as untreated, 100 = completely dead; for weed control efficacies against Amaranthus retroflexus (in words): summary of the test at 80 and 40 gai/ha
Experimental: (§1) Next, weed control efficacies of the Compound A and safety (phytotoxicity) of the Compound A against a useful plant are shown by a Test Example.
(§2) Here the “untreated group” represents a group where the same treatment procedure as that of the treated group except not using the Compound A is done.
(§3) A plastic pot was filled with soil, thereto Amaranthus retroflexus, Ipomoea hederacea, and corn were seeded, and they were grown in a greenhouse for 15 days. Separately, a prescribed amount of a formulation prepared according to the process described in the Formulation Example 1 was diluted with water comprising 1% of Agridex (registered trademark) to obtain a diluent. Said diluent was homogeneously sprayed from above of said plants in a ratio of 204 L/ha such that the applied amount of the Compound A was 80 gai/ha or 40 gai/ha. Then, said plants were grown in a greenhouse for 11 days and evaluated according to the above criteria.
(§4) The Compound B was used instead of the Compound A to carry out the same test as the Test Example 1.

Ipomoea hederacea = experiment: as above; conditions: for weed control efficacy score (0 to 100), Ipomoea hederacea: foliar spray 204 L/ha on plants grown 15 days, evaluated after 11 days, 0 = same as untreated, 100 = completely dead; for weed control efficacies against Ipomoea hederacea (in words): summary of the test at 80 and 40 gai/ha
Experimental: as §1, §2, §3, §4

corn = experiment: Test Example 1: post-emergence foliage spray pot test in greenhouse, safety (phytotoxicity) against a useful plant; conditions: for phytotoxicity score (0 to 100), corn: foliar spray 204 L/ha on plants grown 15 days, evaluated after 11 days, 0 = same as untreated, 100 = completely dead
Experimental: as §1, §2, §3, §4

Row | SMILES | weed control efficacy score (0 to 100), Amaranthus retroflexus (Amaranthus retroflexus; applied amount 40 gai/ha) | weed control efficacy score (0 to 100), Amaranthus retroflexus (Amaranthus retroflexus; applied amount 80 gai/ha) | weed control efficacies against Amaranthus retroflexus (in words) (Amaranthus retroflexus) | weed control efficacy score (0 to 100), Ipomoea hederacea (Ipomoea hederacea; applied amount 40 gai/ha) | weed control efficacy score (0 to 100), Ipomoea hederacea (Ipomoea hederacea; applied amount 80 gai/ha) | weed control efficacies against Ipomoea hederacea (in words) (Ipomoea hederacea) | phytotoxicity against corn (in words) (corn; in vivo) | phytotoxicity score (0 to 100), corn (corn; applied amount 40 gai/ha) | phytotoxicity score (0 to 100), corn (corn; applied amount 80 gai/ha) | phytotoxicity against corn (in words) (corn; summary of the test at 80 and 40 gai/ha)
1 | CCOC(=O)COc1nc(-n2c(=O)cc(C(F)(F)F)n(C)c2=O)ccc1Oc1cc(-n2c(=O)cc(C(F)(F)F)n(C)c2=O)c(F)cc1Cl [Compound A] | 100 | 100 | high weed control efficacies | 95 | 100 | high weed control efficacies | low phytotoxicity | – | – | –
2 | CCOC(=O)COc1ncccc1Oc1cc(-n2c(=O)cc(C(F)(F)F)n(C)c2=O)c(F)cc1Cl [Compound B] | 100 | 100 | high weed control efficacies | 100 | 100 | high weed control efficacies | – | 100 | 100 | high phytotoxicity
